# Assay results taken from PMC10788856, “Mimicking Nonribosomal Peptides from the Marine Actinomycete Streptomyces sp. H-KF8 Leads to Antimicrobial Peptides” (ACS Infectious Diseases, 2023).
# Marks after values point to notes of the source that are not given here. Numbered stars: 1 amine (or outer) side, 2 acyl side, 3 side chain; on linkers, the order of the positions; unused ones are H or OH. Bridge positions count the residues as written; N and C are the ends. Square brackets hold non-standard residues; d marks the D form. Peptide text beside a SMILES is read from it. Tyr(3-NO2) = N[C@@H](Cc1ccc(O)c([N+](=O)[O-])c1)C(=O)O; Glutaryl = O=C(CCCC(=O)[*:2])[*:1]; Orn = NCCC[C@H](N)C(=O)O
# Columns and labels:
# S. aureus (ATCC 12600) = assay: Minimum microbicidal concentration (MMC99) assay; type: cell-based; settings: for S. aureus MMC99 6 h / S. aureus MMC99 24 h / S. aureus MMC99 2 h: BHI diluted 1/100, 37 °C, median, n = 3; for S. aureus MMC99 2 h: lowest concentration killing 99% of inoculum, two-fold dilutions 100-1.6 μg/mL
# Experimental: (§1) The microbicidal activity of the synthetic peptides was assessed against S. aureus (ATCC 12600; American Type Culture Collection, Manassas, VA, USA), Escherichia coli (CCUG 31246; Culture Collection, University of Gothenburg, Sweden), and Candida albicans (ATCC 64549/CCUG31028) using an MMC assay, as described previously by […] et al. (specific details in Supporting Information, pages 10, 11).[28] The assay was performed in BHI diluted 1/100 (BHI100). […] page 11: Table S5. Energy and structural ensembles of synthesized peptides. […] Energy -3887.06 -3620.88 -4968.42 -2163.76 -2646.75 Van der Waals solv. Energy 117.32 91.57 183.20 -88.88 -139.89 Mean RMSD* (Å), mean±SD […] Heavy atoms 1.87 ± 0.33 1.77 ± 0.50 0.98 ± 0.34 0.63 ±0.22 2.88 ±0.62 MMC99 activity including salt stability measurements Antimicrobial activity of L2 and L3 in the presence of NaCl. 1Table S6. Peptide MMC99 (μg/ml) sin NaCl S. aureus E.coli C. albicans (mM) 2[…] 0 50 25 25 85 - - - - - - >200 >200 >200 150 - - - - - - >200 >200 >200 3L 0 12.5 12.5 25 12,5 6.3 6.3 12.5 6.3 12.5 […] 150 >400 >400 (-)2 >400 >400 >400 >200 >200 >200 […] or 150 mM NaCl. L2 and L3 were serially diluted in twofold steps with a starting dilution of 200 μg/ml […] All sample dilutions were run in duplicates (L2) or triplicates (L3). 2 The growth of S. aureus at 24 h in BHI 100 with 85 or 150 mM NaCl was reduced. Minimum microbicidal concentration (MMC), killing 99% of the inoculum. All microorganisms were cultured in brain-heart infusion broth (BHI) overnight on a shaker at 37°C. The cultures were thereafter transferred to fresh BHI broth in volumes constituting 10% of total, and incubated for an additional 2 h to reach exponential growth phase. The bacterial cultures were washed once in BHI diluted 1/100 (BHI100), followed by resuspension in BHI100. The cell suspensions were diluted to a density of […] (bacteria) or 2x10^7 CFU/ml (yeast), as estimated by optical density measurement at 590 nm. […] Serum stability Figure S 133. […] A) peptide L2 B) peptide L3. C) peptide L3-K. D) peptide C3.
# [1] = tested on: Escherichia coli (CCUG 31246); assay: Minimum microbicidal concentration (MMC99) assay; type: cell-based, E. coli; settings: BHI diluted 1/100, 37 °C, median, n = 3
# Experimental: as §1
# [2] = tested on: Candida albicans (ATCC 64549/CCUG31028); assay: Minimum microbicidal concentration (MMC99) assay; type: cell-based, C. albicans; settings: BHI diluted 1/100, 37 °C, median, n = 3
# Experimental: as §1
# S. aureus = assay: microbe, parasite or virus in culture; type: cell-based; settings: for S. aureus MIC: 16 h
# E. coli CCUG31246 = type: cell-based; settings: CCUG31246, 16 h
# Experimental: MICs were performed under the same growth conditions used for mode of action analysis following the guidelines issued by the Clinical Laboratory Standardization Institute (CLSI) with slight modifications. Serial two-fold dilutions of the peptides were prepared in 1:10 BHI in a sterile 96-well plate and subsequently inoculated with 5 × 10^5 CFU/mL of E. coli CCUG31246. […] The following MICs were obtained: C3: 512 μg/mL, L3: 64 μg/mL, and L3-K: 128 μg/mL. These concentrations were used for all mechanistic experiments. Polymyxin B was used as a positive control in all assays at a final concentration of 10 μg/mL.
# C. albicans = assay: microbe, parasite or virus in culture; type: cell-based; settings: for C. albicans MIC: 16 h
# [3] = 37 °C, RP-HPLC
# Experimental: Peptide stability in serum is another limiting factor for AMPs as novel antibiotics.[30]
# Peptide serum stability was performed according to D́Aloisio et al.[30] and Chen et al.[51] with some minor modifications. The serum stability was investigated using human serum (Sigma-Aldrich) from Human male AB plasma, USA origin, sterile-filtered. 250 μL serum was temperature-equilibrated at 37 °C and 100 μL aqueous peptide solution (L2: 1 mM; L3: 0.9 mM; L3-K: 0.7 mM; and C3: 0.5 mM) was added. RP-HPLC was measured at time intervals of 0, 0.5, 1, 4, and 24 h. For RP-HPLC samples, 30 μL of peptide solution was taken, 7 μL of Fmoc-Gly solution (4 mM) was added, and 2 μL of the sample was injected to HPLC. […]
# Figure S 133. RP-HPLC chromatogram (gradient from 10 to 90% acetonitrile in water over 10 min at 2
# ml/min, detection at 254 nm) of peptides tested for serum stability. A) peptide L2 B) peptide L3. C)
# (1 picture or pasted object on this page, not shown here)
# [4] = tested on: hepatoblastoma (HepG2) cells; type: cell-based, human
# Experimental: (§2) To confirm the peptide selectivity toward bacteria cells, cytotoxicity assays of synthesized peptides L2, L3, L3-K, and C3 against human embryonic kidney (HEK) and hepatoblastoma (HepG2) were performed (Figure 4). The cell viability was assessed using resazurin 24 h post peptide exposure. The line at 70% cell viability marks out the threshold for cytotoxic potential compared to the negative control.
# (§3) Figure 4 Cell viability assessment using the resazurin assay 24 h post peptide exposure: (a) HepG2 and (b) HEK cells were treated with various concentrations of the peptides C3, L3, L3-K, and L2. Triton-X was used as a positive control. Cells cultured in pure cell media were used as negative controls and were considered to have 100% cell viability. The line represents the threshold for cytotoxicity level of 70% of cell viability compared to the negative control. Data are presented as the mean ± SD of three biological replicates of the HepG2 cells and the mean ± SD of two biological replicates of the HEK cells.
# (§4) Cytotoxicity against human embryonic kidney (HEK) and hepatoblastoma (HepG2) cell lines was assessed. Cells were grown to an initial seeding density of 10 000 cells per well. Metabolic activity was determined in a resazurin-based assay. HEK and HepG2 cells were exposed to four different concentrations of the peptides for 24 h. Treatment with Triton X-100 at 1% v/v was used as a positive control. Following this exposure period, the cells were treated with resazurin at a final concentration of 0.015 mg/mL for 3 h. The metabolic activity was then determined in an resazurin-based assay. The fluorescence intensities were quantified in a Hidex Sense microplate reader using an excitation wavelength of 544 nm and an emission wavelength of 590 nm.
# [5] = tested on: human embryonic kidney (HEK) cells; type: cell-based
# Experimental: as §2, §3, §4
SMILES,S. aureus MMC99 6 h (S. aureus (ATCC 12600)),S. aureus MMC99 24 h (S. aureus (ATCC 12600)),S. aureus MMC99 2 h (S. aureus (ATCC 12600)),C. albicans MMC99 2 h [2],C. albicans MMC99 6 h [2],C. albicans MMC99 24 h [2],S. aureus MIC (S. aureus),E. coli MIC (E. coli CCUG31246),C. albicans MIC (C. albicans),further results
CC(C)[C@H]1NC(=O)[C@@H](C)NC(=O)CCCC(=O)NCCCC[C@@H](C(N)=O)NC(=O)[C@@H](C(C)C)NC(=O)[C@@H](CC(=O)O)NC(=O)[C@H]([C@@H](C)O)NC(=O)[C@@H](CC(=O)O)NC(=O)[C@H](Cc2c[nH]c3ccccc23)NC(=O)[C@@H](C)NC1=O [C1] ([dA][dV][dA]W[dD]T[dD][dV]K-NH2; linker N-9 via Glutaryl),>100 µg/mL,>100 µg/mL,>100 µg/mL,>100 µg/mL,>100 µg/mL,>100 µg/mL,>512 µg/mL,>512 µg/mL,>512 µg/mL,E. coli MMC99 2 h [1]: >100 µg/mL; E. coli MMC99 6 h [1]: >100 µg/mL; E. coli MMC99 24 h [1]: >100 µg/mL
CC(C)[C@H]1NC(=O)[C@H](CCCN)NC(=O)[C@H]([C@@H](C)O)NC(=O)[C@H](CCCN)NC(=O)[C@H](Cc2c[nH]c3ccccc23)NC(=O)[C@@H](C)NC(=O)[C@@H](C(C)C)NC(=O)[C@@H](C)NC(=O)CCCC(=O)NCCCC[C@@H](C(N)=O)NC1=O [C2] ([dA][dV][dA]W[Orn]T[Orn][dV]K-NH2; linker N-9 via Glutaryl),>100 µg/mL,>100 µg/mL,>100 µg/mL,>100 µg/mL,>100 µg/mL,>100 µg/mL,>512 µg/mL,>512 µg/mL,>512 µg/mL,E. coli MMC99 2 h [1]: >100 µg/mL; E. coli MMC99 6 h [1]: >100 µg/mL; E. coli MMC99 24 h [1]: >100 µg/mL
CC(C)[C@@H](NC(=O)[C@@H](C)N)C(=O)N[C@H](C)C(=O)N[C@@H](Cc1c[nH]c2ccccc12)C(=O)N[C@H](CC(=O)O)C(=O)N[C@H](C(=O)N[C@H](CC(=O)O)C(=O)N[C@@H](C(=O)N[C@@H](CCCCN)C(N)=O)C(C)C)[C@@H](C)O [L1] (H-[dA][dV][dA]W[dD]T[dD][dV]K-NH2),,,,,,,>512 µg/mL,>512 µg/mL,>512 µg/mL,
CC(C)[C@@H](NC(=O)[C@H](CCCN)NC(=O)[C@@H](NC(=O)[C@H](CCCN)NC(=O)[C@H](Cc1c[nH]c2ccccc12)NC(=O)[C@@H](C)NC(=O)[C@H](NC(=O)[C@@H](C)N)C(C)C)[C@@H](C)O)C(N)=O [L2-K] (H-[dA][dV][dA]W[Orn]T[Orn][dV]-NH2),,,,,,,>512 µg/mL,>512 µg/mL,>512 µg/mL,
CC(C)[C@@H](NC(=O)[C@H](CCCN)NC(=O)[C@@H](NC(=O)[C@H](CCCN)NC(=O)[C@H](Cc1c[nH]c2ccccc12)NC(=O)[C@@H](C)NC(=O)[C@H](NC(=O)[C@@H](C)NC(=O)[C@@H](N)Cc1c[nH]c2ccccc12)C(C)C)[C@@H](C)O)C(=O)N[C@@H](Cc1ccc(O)c([N+](=O)[O-])c1)C(=O)N[C@@H](CCCCN)C(N)=O [L3] (H-W[dA][dV][dA]W[Orn]T[Orn][dV][Tyr(3-NO2)]K-NH2),,,,,,,248 µg/mL,64 µg/mL,,"stability in human serum ([3]; human serum from male AB plasma, 250 μL serum + 100 μL aqueous peptide solution (L2 1 mM; L3 0.9 mM; L3-K 0.7 mM; C3 0.5 mM), 0, 0.5, 1, 4, 24 h, Fmoc-Gly internal standard): stable after 24 h; additional peaks / shoulder in chromatogram after 24 h in serum, total volume percentage ([3]; human serum, 24 h, detection at 254 nm): 0.6%; cytotoxicity, cell viability HepG2 [4]: no cytotoxicity at any tested concentration; cytotoxicity, cell viability HEK [5]: no cytotoxicity at any tested concentration"
"Clc1ccccc1C(c1ccccc1)(c1ccccc1)n1ccnc1 [clotrimazole, reference compound]",,,,>100 ^d μg/mL,>100 ^d μg/mL,>100 ^d μg/mL,,,,"MIC (C. albicans; Candida albicans, highest concentration 512 μg/mL, median, n = 3): 4 µg/mL"
"CC(=O)O[C@H]1C[C@@]2(C)[C@@H](C[C@@H](O)[C@H]3[C@@]4(C)CC[C@@H](O)[C@@H](C)[C@@H]4CC[C@@]32C)/C1=C(\CCC=C(C)C)C(=O)O [fusidic acid, reference compound]",6.3 µg/mL,1.6 µg/mL,25 µg/mL,,,,,,,"MMC99 for S. aureus, decreasing over time (S. aureus (ATCC 12600); 2 h to 24 h): 25 to 1.6 μg/mL; MIC (S. aureus; Staphylococcus aureus, read-out: S. aureus MIC): 0.09 µg/mL"
